Article PMC6304311 (Influenza and Other Respiratory Viruses, 2018)
Where two headings read alike, the source gives them in different places.

Tests used:
[1] = molecular target: T1, NA from influenza A(H1N1) virus isolates (Influenza A virus, UniProt C0LLZ0); type: biochemical
[2] = molecular target: NA from influenza A(H1N1)pdm09 virus isolates (Influenza A virus, UniProt C7FH46); type: biochemical
[3] = molecular target: T2, NA from influenza A(H3N2) virus isolates (Influenza A virus, UniProt V5P6L4); type: biochemical
[4] = molecular target: NA from influenza B virus isolates (Influenza B virus, UniProt A0A1S5RAG6); type: biochemical
[5] = molecular target: T1, NA from influenza A(H1N1) virus isolates; settings: cited from earlier work
[6] = tested on: NA from influenza A(H1N1)pdm09 virus isolates; settings: cited from earlier work; for IC50: read-out: IC50, susceptible reference strain
[7] = molecular target: T2, NA from influenza A(H3N2) virus isolates; settings: cited from earlier work
[8] = read-out: IC50, susceptible reference strain

Row | Structure (SMILES) | Susceptible [1] | outlier virus isolates [1] | share of virus isolates with markedly increased IC50 [1] | Susceptible [2] | Susceptible [3] | IC50 ([3]; read-out: IC50 Median (range)) | IC50 ([3]; read-out: IC50 Statistical cutoff (X 0.75 + 3IQR)) | IC50 ([3]; read-out: IC50 X 0.75 (75th percentile)) | Susceptible [4] | IC50 [5, 8] | IC50 [6] | IC50 [7, 8] | susceptibility phenotype of reference virus [5] | susceptibility phenotype of reference virus [6] | susceptibility phenotype of reference virus [7]
1 | CCOC(=O)C1=C[C@@H](OC(CC)CC)[C@H](NC(C)=O)[C@@H](N)C1 [oseltamivir] | susceptible and Yes and No | 2/4 | 97.9% | susceptible and Yes | susceptible and Yes | 0.05 nM | 0.15 nM | 0.06 nM | susceptible and Yes | 0.13 nM | 0.1 nM | 0.21 nM |  |  | 
2 | CC(=O)N[C@H]1[C@H]([C@H](O)[C@H](O)CO)OC(C(=O)O)=C[C@@H]1N=C(N)N [zanamivir] | susceptible and Yes | 3/4 |  | susceptible and Yes | susceptible and Yes |  |  |  |  |  | 0.42 nM |  | susceptible | susceptible | susceptible
